Data: PMC11748363, “Antimicrobial and Antiproliferative Properties of 2‐Phenyl‐N‐(Pyridin‐2‐yl)acetamides” (Chemical Biology & Drug Design, 2025)
≈ marks a conversion by molar mass, not a printed value. Where two headings read alike, the source gives them in different places.

Columns and labels:
HepG2 cell line = test: Cytotoxicity CellTiter 96, HepG2; format: cell-based, human; conditions: Homo sapiens, HepG2, 24 h, 24 h incubation; ^c compound precipitated in the testing medium; ^d over the limit of tested concentrations
[1] = system: Lichtheimia corymbifera CCM 8077; test: Antifungal microdilution broth MIC, LC
[2] = system: Aspergillus fumigatus ATCC 204305; test: Antifungal microdilution broth MIC, AF
[3] = system: Staphylococcus aureus subsp. aureus CCM 4750, ATCC 43300 (MRSA); test: Antibacterial microdilution broth MIC, MRSA; format: cell-based; conditions: Staphylococcus aureus
[4] = system: Enterococcus faecalis CCM 4224, ATCC 29212; test: Antibacterial microdilution broth MIC, EF; format: cell-based
[5] = system: Pseudomonas aeruginosa CCM 3955, ATCC 27853; test: Antibacterial microdilution broth MIC, PA; format: cell-based
[6] = system: Mycobacterium tuberculosis H37Ra; test: Antimycobacterial microdilution broth MIC (resazurin), Mtb H37Ra; format: cell-based; conditions: for MIC: Mycobacterium tuberculosis, H37RA, read-out: MIC Mtb H37Ra; for SI (selectivity index): SI = HepG2 IC50 (μM)/MIC MtbH37Ra (μM), calculated for compounds with MIC ≤ 31.25 μg/mL
[7] = system: Escherichia coli CCM 3954, ATCC 25922; test: Antibacterial microdilution broth MIC, EC; format: cell-based
[8] = system: Candida krusei CCM 8271, ATCC 6258; test: Antifungal microdilution broth MIC, CK; conditions: Pichia kudriavzevii
[9] = system: Klebsiella pneumoniae CCM 4415, ATCC 10031; test: Antibacterial microdilution broth MIC, KP
[10] = system: Candida parapsilosis CCM 8260, ATCC 22019; test: Antifungal microdilution broth MIC, CP; conditions: Lodderomyces parapsilosis
[11] = system: Staphylococcus aureus CCM 4223, ATCC 29213; test: Antibacterial microdilution broth MIC, SA; format: cell-based; conditions: Staphylococcus aureus
[12] = system: Acinetobacter baumannii DSM 30007, ATCC 19606; test: Antibacterial microdilution broth MIC, ACI; format: cell-based
[13] = system: Staphylococcus epidermidis CCM 4418, ATCC 12228; test: Antibacterial microdilution broth MIC, SE; format: cell-based
[14] = system: Trichophyton interdigitale CCM 8377, ATCC 9533; test: Antifungal microdilution broth MIC, TI; conditions: Trichophyton interdigitale
[15] = system: Mycolicibacterium aurum DSM 43999; test: Antimycobacterial microdilution broth MIC (resazurin), M. aurum; format: cell-based; conditions: DSM43999, read-out: MIC M. aurum
[16] = system: Mycolicibacterium smegmatis DSM 43465; test: Antimycobacterial microdilution broth MIC (resazurin), M. smegmatis; format: cell-based; conditions: DSM43465, read-out: MIC M. smegmatis
[17] = system: Candida tropicalis CCM 8264, ATCC 750; test: Antifungal microdilution broth MIC, CT
[18] = system: Candida albicans CCM 8320, ATCC 24433; test: Antifungal microdilution broth MIC, CA
[19] = system: Aspergillus flavus CCM 8363; test: Antifungal microdilution broth MIC, AFla
[20] = CCM8077, 24 h, read-out: MIC LC 24h
[21] = CCM8077, 48 h, read-out: MIC LC 48h
[22] = ATCC204305, 24 h, read-out: MIC AF 24h
[23] = ATCC204305, 48 h, read-out: MIC AF 48h
[24] = CCM8363, 24 h, read-out: MIC AFla 24h
[25] = CCM8363, 48 h, read-out: MIC AFla 48h

Structure (SMILES) | IC50 (HepG2 cell line) | MIC [1, 20] | MIC [1, 21] | MIC [2, 22] | MIC [2, 23] | MIC ([3]; 24 h, read-out: MIC MRSA 24h) | MIC ([3]; 48 h, read-out: MIC MRSA 48h) | MIC ([4]; 24 h, read-out: MIC EF 24h) | MIC ([4]; 48 h, read-out: MIC EF 48h) | MIC ([5]; 24 h, read-out: MIC PA 24h) | MIC ([5]; 48 h, read-out: MIC PA 48h) | MIC ([6]; Calculated from MIC (μg/mL)) | MIC [6] | MIC ([7]; 24 h, read-out: MIC EC 24h) | MIC ([7]; 48 h, read-out: MIC EC 48h) | MIC ([8]; 24 h, read-out: MIC CK 24h) | MIC ([8]; 48 h, read-out: MIC CK 48h) | MIC KP 24h [9] | MIC KP 48h [9] | MIC ([10]; 24 h, read-out: MIC CP 24h) | further results
O=C(Cc1ccc(Cl)cc1)Nc1ccccn1 [Compound 19] | 333 µM | > 500 µM | > 500 µM | > 500 µM | > 500 µM | > 500 µM | > 500 µM | > 500 µM | > 500 µM | > 500 µM | > 500 µM | 127 µM | 31.2 µg/mL | > 500 µM | > 500 µM | 500 µM (≈ 123 µg/mL) | 500 µM (≈ 123 µg/mL) | > 500 µM | > 500 µM | 500 µM (≈ 123 µg/mL) | SI (selectivity index) [6]: 2.6; MIC ([10]; 48 h, read-out: MIC CP 48h): 500 µM (≈ 123 µg/mL); MIC ([11]; 24 h, read-out: MIC SA 24h): 500 µM (≈ 123 µg/mL); MIC ([11]; 48 h, read-out: MIC SA 48h): 500 µM (≈ 123 µg/mL); MIC ([12]; 24 h, read-out: MIC ACI 24h): > 500 µM; MIC ([12]; 48 h, read-out: MIC ACI 48h): > 500 µM; MIC ([13]; 24 h, read-out: MIC SE 24h): 125 µM (≈ 30.8 µg/mL); MIC ([13]; 48 h, read-out: MIC SE 48h): 125 µM (≈ 30.8 µg/mL); MIC ([14]; 72 h, read-out: MIC TI 72h): 250 µM (≈ 61.7 µg/mL); MIC ([14]; 120 h, read-out: MIC TI 120h): 250 µM (≈ 61.7 µg/mL); MIC [15]: > 500 µg/mL; MIC [16]: 31.2 µg/mL (≈ 127 µM); MIC ([17]; 24 h, read-out: MIC CT 24h): > 500 µM; MIC ([17]; 48 h, read-out: MIC CT 48h): > 500 µM; MIC ([18]; 24 h, read-out: MIC CA 24h): > 500 µM; MIC ([18]; 48 h, read-out: MIC CA 48h): > 500 µM; MIC [19, 24]: > 500 µM; MIC [19, 25]: > 500 µM
O=C(Cc1ccccc1C(F)(F)F)Nc1ccccn1 [Compound 22] | 445 µM | 500 µM (≈ 140 µg/mL) | > 500 µM | 500 µM (≈ 140 µg/mL) | > 500 µM | > 500 µM | > 500 µM | > 500 µM | > 500 µM | > 500 µM | > 500 µM | 446 µM | 125 µg/mL | > 500 µM | > 500 µM | > 500 µM | > 500 µM | > 500 µM | > 500 µM | > 500 µM | MIC ([10]; 48 h, read-out: MIC CP 48h): > 500 µM; MIC ([11]; 24 h, read-out: MIC SA 24h): > 500 µM; MIC ([11]; 48 h, read-out: MIC SA 48h): > 500 µM; MIC ([12]; 24 h, read-out: MIC ACI 24h): > 500 µM; MIC ([12]; 48 h, read-out: MIC ACI 48h): > 500 µM; MIC ([13]; 24 h, read-out: MIC SE 24h): > 500 µM; MIC ([13]; 48 h, read-out: MIC SE 48h): > 500 µM; MIC ([14]; 72 h, read-out: MIC TI 72h): 500 µM (≈ 140 µg/mL); MIC ([14]; 120 h, read-out: MIC TI 120h): 500 µM (≈ 140 µg/mL); MIC [15]: 250 µg/mL (≈ 892 µM); MIC [16]: 250 µg/mL (≈ 892 µM); MIC ([17]; 24 h, read-out: MIC CT 24h): > 500 µM; MIC ([17]; 48 h, read-out: MIC CT 48h): > 500 µM; MIC ([18]; 24 h, read-out: MIC CA 24h): > 500 µM; MIC ([18]; 48 h, read-out: MIC CA 48h): > 500 µM; MIC [19, 24]: > 500 µM; MIC [19, 25]: > 500 µM
O=C(Cc1ccccc1C(F)(F)F)Nc1ccc(Cl)cn1 [Compound 23] | 201 µM | > 500 µM | > 500 µM | > 500 µM | > 500 µM | > 500 µM | > 500 µM | > 500 µM | > 500 µM | > 500 µM | > 500 µM | 99.3 µM | 31.2 µg/mL | > 500 µM | > 500 µM | > 500 µM | > 500 µM | > 500 µM | > 500 µM | > 500 µM | SI (selectivity index) [6]: 2.0; MIC ([10]; 48 h, read-out: MIC CP 48h): > 500 µM; MIC ([11]; 24 h, read-out: MIC SA 24h): > 500 µM; MIC ([11]; 48 h, read-out: MIC SA 48h): > 500 µM; MIC ([12]; 24 h, read-out: MIC ACI 24h): > 500 µM; MIC ([12]; 48 h, read-out: MIC ACI 48h): > 500 µM; MIC ([13]; 24 h, read-out: MIC SE 24h): > 500 µM; MIC ([13]; 48 h, read-out: MIC SE 48h): > 500 µM; MIC ([14]; 72 h, read-out: MIC TI 72h): 500 µM (≈ 157 µg/mL); MIC ([14]; 120 h, read-out: MIC TI 120h): 500 µM (≈ 157 µg/mL); MIC [15]: > 500 µg/mL; MIC [16]: > 500 µg/mL; MIC ([17]; 24 h, read-out: MIC CT 24h): > 500 µM; MIC ([17]; 48 h, read-out: MIC CT 48h): > 500 µM; MIC ([18]; 24 h, read-out: MIC CA 24h): > 500 µM; MIC ([18]; 48 h, read-out: MIC CA 48h): > 500 µM; MIC [19, 24]: > 500 µM; MIC [19, 25]: > 500 µM
